Measurements taken from patent US20230416240A1, “KAT6 TARGETING COMPOUNDS” (Prelude Therapeutics Incorporated, priority 2022, published 2023).

Experiments:
KAT6A = biological target: T1, KAT6A (Homo sapiens, UniProt Q92794); experiment: Western Blot KAT6A Degradation Assessment; assay type: cell-based; conditions: 0.1 μM compound, 24 hours of treatment, HCC1954 cell line, KAT6A normalized to GAPDH and DMSO
T1 construct: These studies were conducted in the HCC1954 cell line which harbors a KAT6A copy number amplification; endogenous in cells; host or cells: HCC1954
T1 sequence (Q92794 whole entry): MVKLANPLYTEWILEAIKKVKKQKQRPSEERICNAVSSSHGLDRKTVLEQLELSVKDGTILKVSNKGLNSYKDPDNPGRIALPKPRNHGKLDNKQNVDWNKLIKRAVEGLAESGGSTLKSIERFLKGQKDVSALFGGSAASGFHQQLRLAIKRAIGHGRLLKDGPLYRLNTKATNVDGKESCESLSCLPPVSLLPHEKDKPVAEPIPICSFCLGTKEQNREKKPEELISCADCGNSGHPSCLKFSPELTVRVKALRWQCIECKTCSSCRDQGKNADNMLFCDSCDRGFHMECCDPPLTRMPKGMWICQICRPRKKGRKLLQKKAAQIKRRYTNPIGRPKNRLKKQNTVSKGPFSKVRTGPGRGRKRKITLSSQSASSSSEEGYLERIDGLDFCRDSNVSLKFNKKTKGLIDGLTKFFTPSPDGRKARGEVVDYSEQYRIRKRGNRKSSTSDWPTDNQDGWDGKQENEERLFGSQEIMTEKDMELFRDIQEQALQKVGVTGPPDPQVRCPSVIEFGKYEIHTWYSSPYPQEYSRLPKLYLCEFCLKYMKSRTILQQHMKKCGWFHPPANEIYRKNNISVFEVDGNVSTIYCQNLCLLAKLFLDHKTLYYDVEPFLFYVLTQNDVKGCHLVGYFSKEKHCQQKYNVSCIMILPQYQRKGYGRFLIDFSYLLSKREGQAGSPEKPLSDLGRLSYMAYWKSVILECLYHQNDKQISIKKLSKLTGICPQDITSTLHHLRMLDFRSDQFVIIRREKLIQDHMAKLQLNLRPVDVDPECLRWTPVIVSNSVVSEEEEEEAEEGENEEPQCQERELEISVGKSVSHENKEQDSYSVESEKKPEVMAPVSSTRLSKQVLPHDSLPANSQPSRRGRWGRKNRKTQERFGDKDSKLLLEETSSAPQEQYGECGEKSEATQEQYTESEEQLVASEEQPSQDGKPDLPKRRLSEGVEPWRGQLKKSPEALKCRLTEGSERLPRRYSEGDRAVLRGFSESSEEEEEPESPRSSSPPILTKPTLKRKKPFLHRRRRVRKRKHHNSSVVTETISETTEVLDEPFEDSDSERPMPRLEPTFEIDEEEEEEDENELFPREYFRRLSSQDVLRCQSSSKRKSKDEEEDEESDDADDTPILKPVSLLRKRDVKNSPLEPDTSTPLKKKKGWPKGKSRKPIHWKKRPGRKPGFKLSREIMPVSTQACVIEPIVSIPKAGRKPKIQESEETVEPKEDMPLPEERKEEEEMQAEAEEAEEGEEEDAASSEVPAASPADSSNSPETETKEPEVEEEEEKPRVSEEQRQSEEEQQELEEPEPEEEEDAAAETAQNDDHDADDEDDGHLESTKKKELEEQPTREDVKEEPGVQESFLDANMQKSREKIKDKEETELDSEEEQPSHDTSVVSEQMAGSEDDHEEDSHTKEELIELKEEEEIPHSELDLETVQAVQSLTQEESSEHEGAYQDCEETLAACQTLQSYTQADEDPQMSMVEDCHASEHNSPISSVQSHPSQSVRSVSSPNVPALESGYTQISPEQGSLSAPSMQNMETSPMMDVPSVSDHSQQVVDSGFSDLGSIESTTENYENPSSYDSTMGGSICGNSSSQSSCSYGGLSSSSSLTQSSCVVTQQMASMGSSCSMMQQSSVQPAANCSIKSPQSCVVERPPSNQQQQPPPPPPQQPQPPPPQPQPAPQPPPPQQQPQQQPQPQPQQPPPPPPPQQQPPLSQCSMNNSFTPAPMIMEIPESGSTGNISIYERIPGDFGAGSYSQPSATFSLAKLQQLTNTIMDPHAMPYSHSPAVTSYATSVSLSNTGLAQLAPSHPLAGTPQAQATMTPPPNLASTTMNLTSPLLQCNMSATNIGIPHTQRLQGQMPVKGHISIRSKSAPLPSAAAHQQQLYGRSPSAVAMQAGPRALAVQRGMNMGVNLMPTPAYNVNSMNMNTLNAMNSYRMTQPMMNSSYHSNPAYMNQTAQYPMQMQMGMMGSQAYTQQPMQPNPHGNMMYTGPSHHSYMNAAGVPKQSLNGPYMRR
Protocol: The activity of compounds was evaluated by measuring KAT6A protein levels as a readout of KAT6A degradation ability using western blot. These studies were conducted in the HCC1954 cell line which harbors a KAT6A copy number amplification. Cells were maintained in a 37° C. incubator at 5% CO2 in the following media: RPMI 1640, ATCC© Modification (Gibco, A10491-01) supplemented with 10% v/v FBS (Gibco, 26140-079) and 1% penicillin streptomycin (Gibco, 15140-122). Cells were seeded in 6-well plates at a density of 300,000 cells/well and allowed to attach overnight in an incubator. Compounds dissolved in DMSO were prepared at 1000× the desired final concentration such that the final percentage of DMSO was 0.1%. After 24 hours of treatment, cells were washed with phosphate buffered saline (PBS) (Corning, 21-040-CV), detached with trypsin-EDTA (Gibco, #25200-056), and pelleted in complete RPMI media in a microcentrifuge for 5 min at 1500 rpm. Protein was extracted from cell pellets by re-suspending in 15 uL PBS before adding 45 uL of lysis buffer composed of 4% SDS, 1× protease and phosphatase inhibitors, and 1 mM PMSF (Cell Signaling Technology, #8553S). Lysates were transferred to homogenizer columns (Omega Biotek, #HCR003) and centrifuged for 1.5 min at 12,000 rpm.
Homogenized lysates were quantified by BCA assay (ThermoScientific, Pierce BCA Protein Assay, #23223, #23224) as per manufacturer instructions. Samples were then diluted in 4× Laemmli buffer (Biorad, #1610747) to a 1× solution which was boiled at 95° C. for 5 minutes. To assess KAT6A protein expression, samples were run on 26 well gels (Biorad, 4-15% Criterion TGX Precast gels, #5671085) at 120V for approximately 1 hour. Protein was transferred to low-fluorescence PVDF membranes (Millipore Sigma, #IPFL00010) using Trans-Blot Turbo Transfer System (Biorad). Membranes were then probed with KAT6A (Cell Signaling Technology, #78462) and GAPDH (Cell Signaling Technology, #5174S) primary, and fluorescently tagged secondary antibodies (LI-COR, IRDye 800CW Goat anti-rabbit #926-32211; IRDye 680RD Goat anti-mouse #926-68070) at manufacturer recommended conditions using the iBind Flex western device (Thermofisher, SLF2000). Membranes were washed briefly in water and scanned with a LI-COR Odyssey CLx. Quantification of bands was assessed using Image Studio Ver 5.2. to normalize KAT6A expression to GAPDH loading controls before representing KAT6A expression as a percentage of that observed in DMSO.

HiBit tagged KAT6A = biological target: T2, HiBit tagged KAT6A (Homo sapiens, UniProt Q92794); experiment: HiBit KAT6A Degradation Assessment; assay type: cell-based; conditions: HeLa cells with HiBit tagged KAT6A, 18 h of treatment, 9-point serial dilution
T2 construct: host or cells: HeLa
T2 sequence (Q92794 whole entry): as above
Protocol: The degradation activity of compounds was evaluated by measuring levels of KAT6A protein using the HiBiT system. These studies were conducted in HeLa cells with a HiBit tagged KAT6A. Cells were maintained in a 37° C. incubator at 5% CO2 in EMEM (ATCC, 30-2003) supplemented with 10% v/v FBS (Gibco, 26140-079) and 1% penicillin streptomycin. Cells were seeded in 384-well plates at a density of 2,000 cells/well. Compounds dissolved in DMSO were added in 9-point serial dilution. After 18 h of treatment, KAT6A levels were measured using the Nano-Glo® HiBiT Lytic Detection System (Promega catalog number N3030) per manufacturer's instructions. Luminescence signal was measured with a multimode plate reader (Envision 2105, Perkin Elmer). Luminescence values were normalized to background and DMSO controls to quantify KAT6A for each condition. Results were analyzed, and DC50 and Dmax values obtained using a four-parameter logistic curve fit.

Row | SMILES | inhibition at 0.1 µM (KAT6A) | DC50 (HiBit tagged KAT6A) | Dmax (HiBit tagged KAT6A)
1 | COc1cc(Cn2cccn2)cc2onc(NS(=O)(=O)c3cccc(N4CCN(C5CC6(CCN(c7ccc8c(c7)C(=O)N(C7CCC(=O)NC7=O)C8=O)C6)C5)CC4)c3)c12 (centres unmarked) [Example 8, 3-[4-[6-[2-(2,6-Dioxopiperidin-3-yl)-1,3-dioxoisoindol-5-yl]-6-azaspiro[3.4]octan-2-yl]piperazin-1-yl]-N-[4-methoxy-6-(pyrazol-1-ylmethyl)-1,2-benzoxazol-3-yl]benzenesulfonamide] | > 75% | 0.01 to 0.1 µM | 50 to 75%
2 | COc1cc(Cn2cccn2)cc2onc(NS(=O)(=O)c3cccc(N4CCN(C5CC6(CCN(c7ccc8c(c7)C(=O)N(C7CCC(=O)NC7=O)C8=O)CC6)C5)CC4)c3)c12 (centres unmarked) [Example 4, 3-[4-[7-[2-(2,6-Dioxopiperidin-3-yl)-1,3-dioxoisoindol-5-yl]-7-azaspiro[3.5]nonan-2-yl]piperazin-1-yl]-N-[4-methoxy-6-(pyrazol-1-ylmethyl)-1,2-benzoxazol-3-yl]benzenesulfonamide] | 50 to 75% | 0.01 to 0.1 µM | > 75%
3 | COc1cc(Cn2cccn2)cc2onc(NS(=O)(=O)c3cccc(N4CCN(CCC5CCN(c6ccc7c(c6)C(=O)N(C6CCC(=O)NC6=O)C7=O)C5)CC4)c3)c12 (centres unmarked) [Example 9, 3-[4-[2-[1-[2-(2,6-Dioxopiperidin-3-yl)-1,3-dioxoisoindol-5-yl]pyrrolidin-3-yl]ethyl]piperazin-1-yl]-N-[4-methoxy-6-(pyrazol-1-ylmethyl)-1,2-benzoxazol-3-yl]benzenesulfonamide] | 0 to 50% | 0.01 to 0.1 µM | 50 to 75%
4 | COc1cc(Cn2cccn2)cc2onc(NS(=O)(=O)c3cccc(N(C)C4CCN(C[C@@H]5CCN(c6ccc7c(c6)CN([C@H]6CCC(=O)NC6=O)C7=O)C5)CC4)c3)c12 [Example 37, N-(6-((1H-Pyrazol-1-yl)methyl)-4-methoxybenzo[d]isoxazol-3-yl)-3-((1-(((S)-1-(2-((S)-2,6-dioxopiperidin-3-yl)-1-oxoisoindolin-5-yl)pyrrolidin-3-yl)methyl)piperidin-4-yl)(methyl)amino)benzenesulfonamide] | – | < 0.01 µM | 50 to 75%
5 | COc1ccc(N2CC3(CCN(CC4CCN(c5ccc6c(c5)C(=O)N(C5CCC(=O)NC5=O)C6=O)C4)CC3)C2)cc1S(=O)(=O)Nc1noc2cc(Cn3cccn3)cc(OC)c12 (centres unmarked) [Example 41, N-(6-((1H-pyrazol-1-yl)methyl)-4-methoxybenzo[d]isoxazol-3-yl)-5-(7-((1-(2-(2,6-dioxopiperidin-3-yl)-1,3-dioxoisoindolin-5-yl)pyrrolidin-3-yl)methyl)-2,7-diazaspiro[3.5]nonan-2-yl)-2-methoxybenzenesulfonamide] | – | < 0.01 µM | 50 to 75%
6 | COc1c(N2CC3(CCN(C[C@@H]4CCN(c5ccc6c(c5)CN(C5CCC(=O)NC5=O)C6=O)C4)CC3)C2)cccc1S(=O)(=O)Nc1noc2cc(Cn3cccn3)cc(OC)c12 (stereo partly drawn) [Example 26, N-(6-((1H-Pyrazol-1-yl)methyl)-4-methoxybenzo[d]isoxazol-3-yl)-3-(7-(((3S)-1-(2-(2,6-dioxopiperidin-3-yl)-1-oxoisoindolin-5-yl)pyrrolidin-3-yl)methyl)-2,7-diazaspirononan-2-yl)-2-methoxybenzenesulfonamide] | – | < 0.01 µM | > 75%
7 | COc1cc(Cn2cccn2)cc2onc(NS(=O)(=O)c3cccc(N4CC5(CCN(C[C@@H]6CCN(c7ccc8c(c7)C(=O)N(C7CCC(=O)NC7=O)C8=O)C6)CC5)C4)c3)c12 (stereo partly drawn) [Example 16, N-(6-((1H-Pyrazol-1-yl)methyl)-4-methoxybenzo[d]isoxazol-3-yl)-3-(7-(((3S)-1-(2-(2,6-dioxopiperidin-3-yl)-1,3-dioxoisoindolin-5-yl)pyrrolidin-3-yl)methyl)-2,7-diazaspiro[3.5]nonan-2-yl)benzenesulfonamide] | – | < 0.01 µM | > 75%
8 | COc1cc(Cn2cccn2)cc2onc(NS(=O)(=O)c3cccc(N4CC5(CCN(CC6(F)CCN(c7ccc8c(c7)C(=O)N(C7CCC(=O)NC7=O)C8=O)C6)CC5)C4)c3)c12 (centres unmarked) [Example 13, N-(6-((1H-Pyrazol-1-yl)methyl)-4-methoxybenzo[d]isoxazol-3-yl)-3-(7-((1-(2-(2,6-dioxopiperidin-3-yl)-1,3-dioxoisoindolin-5-yl)-3-fluoropyrrolidin-3-yl)methyl)-2,7-diazaspiro[3.5]nonan-2-yl)benzenesulfonamide] | – | 0.01 to 0.1 µM | 50 to 75%
9 | COc1cc(Cn2cccn2)cc2onc(NS(=O)(=O)c3cccc(N4CC5(CCN(C[C@H]6CCN(c7ccc8c(c7)C(=O)N(C7CCC(=O)NC7=O)C8=O)C6)CC5)C4)c3)c12 (stereo partly drawn) [Example 35, N-(6-((1H-pyrazol-1-yl)methyl)-4-methoxybenzo[d]isoxazol-3-yl)-3-(7-(((3R)-1-(2-(2,6-dioxopiperidin-3-yl)-1,3-dioxoisoindolin-5-yl)pyrrolidin-3-yl)methyl)-2,7-diazaspiro[3.5]nonan-2-yl)benzenesulfonamide] | – | < 0.01 µM | 50 to 75%
10 | COc1cc(Cn2cccn2)cc2onc(NS(=O)(=O)c3cccc(N4CC5(CCN(CC6(C)CCN(c7ccc8c(c7)C(=O)N(C7CCC(=O)NC7=O)C8=O)C6)CC5)C4)c3)c12 (centres unmarked) [Example 12, N-(6-((1H-Pyrazol-1-yl)methyl)-4-methoxybenzo[d]isoxazol-3-yl)-3-(7-((1-(2-(2,6-dioxopiperidin-3-yl)-1,3-dioxoisoindolin-5-yl)-3-methylpyrrolidin-3-yl)methyl)-2,7-diazaspiro[3.5]nonan-2-yl)benzenesulfonamide] | – | < 0.01 µM | 50 to 75%
11 | COc1c(N2CC3(CCN(C[C@@H]4CCN(c5ccc6c(c5)C(=O)N(C5CCC(=O)NC5=O)C6=O)C4)CC3)C2)cccc1S(=O)(=O)Nc1noc2cc(Cn3cccn3)cc(OC)c12 (stereo partly drawn) [Example 30, N-(6-((1H-pyrazol-1-yl)methyl)-4-methoxybenzo[d]isoxazol-3-yl)-3-(7-(((3S)-1-(2-(2,6-dioxopiperidin-3-yl)-1,3-dioxoisoindolin-5-yl)pyrrolidin-3-yl)methyl)-2,7-diazaspiro[3.5]nonan-2-yl)-2-methoxybenzenesulfonamide] | – | < 0.01 µM | > 75%
12 | COc1cc(Cn2cccn2)cc2onc(NS(=O)(=O)c3cccc(N4CCN(CC5CCN(c6ccc7c(c6)C(=O)N(C6CCC(=O)NC6=O)C7=O)C5)C(C)(C)C4)c3)c12 (centres unmarked) [Example 21, N-(6-((1H-Pyrazol-1-yl)methyl)-4-methoxybenzo[d]isoxazol-3-yl)-3-(4-((1-(2-(2,6-dioxopiperidin-3-yl)-1,3-dioxoisoindolin-5-yl)pyrrolidin-3-yl)methyl)-3,3-dimethylpiperazin-1-yl)benzenesulfonamide] | – | 0.1 to 1 µM | 50 to 75%
13 | COc1ccc(N2CC3(CCN(C[C@@H]4CCN(c5ccc6c(c5)C(=O)N(C5CCC(=O)NC5=O)C6=O)C4)CC3)C2)c(OC)c1S(=O)(=O)Nc1noc2cc(Cn3cccn3)cc(OC)c12 (stereo partly drawn) [Example 25, N-(6-((1H-Pyrazol-1-yl)methyl)-4-methoxybenzo[d]isoxazol-3-yl)-3-(7-(((3S)-1-(2-(2,6-dioxopiperidin-3-yl)-1,3-dioxoisoindolin-5-yl)pyrrolidin-3-yl)methyl)-2,7-diazaspiro[3.5]nonan-2-yl)-2,6-dimethoxybenzenesulfonamide] | – | < 0.01 µM | > 75%
